In data set [1] the target is T1, GST-cGB-PDE5 fusion protein (cGMP binding sites of human PDE5A) (Homo sapiens, UniProt O76074).
T1 construct: made in house; host or cells: E. coli BL21 (DE3)
Description: cGMP binding assay with GST-cGB-PDE5 fusion protein. Conditions: for competition with cGMP binding to GST-cGB-PDE5 at high concentration: compound 100 μM, cGMP 2 μM. As to the method:
5′-3′, Inc. kits for total RNA followed by oligo (dT) column purification of mRNA are used with HT-29 cells. […] It is then cloned into pGEX-5X-3 glutathione-S-transferase (GST) fusion vector (Pharmacia Biotech )with tac promoter, and EcoRI and XhoI cut sites. The fusion vector is then transfected into E. Coli BL21 (DE3) bacteria (Invitrogen). The transfected BL21 bacteria is grown to log phase, and then IPTG is added as an inducer. The induction is carried at 20° C. for 24 hrs. The bacteria are harvested and lysed. The soluble cell lysate is incubated with GSH conjugated Sepharose 4B (GSH-Sepharose 4B). The GST-cGB-PDE5 fusion protein can bind to the GSH-Sepharose beads, and the other proteins are washed off from beads with excessive cold PBS.
Then, the mixture is transferred to Brandel MB-24 cell harvester with GF/B as the filter membrane followed by 2 washes with 10 mL of cold 5 mM potassium buffer(pH 6.8). The membranes are then cut out and transferred to scintillation vials followed by the addition of 1 mL of H2O and 6 mL of Ready Safe™ liquid scintillation cocktail to each vial. The vials are counted on a Beckman LS 6500 scintillation counter.
The quenching by filter membrane or other debris are also calibrated.

The subject of data set [2] is U937 cells. In words: apoptosis induction of U937 cells (active caspase 3 indirect immunofluorescence). The note with it: 1 μM. In kind it is cell-based. Here is the method: U937 cells (from ATCC Rockville, Md.) were grown in RPMI media supplemented with 5% FCS, glutamine, antibiotic/antimycotic and sodium pyruvate. Total RNA was isolated from two U937 cultures, one treated with 5 nM TPA for 48 hours and one grown in normal media as listed above, using the Rouche High Pure RNA Isolation Kit (cat#1 828 665) as per manufacturers protocol. cDNA was then synthesized from the total RNA using GibcoBRL SuperscriptII (Cat #18064-022) reverse transcriptase as per manufacturers protocol. The resulting cDNA was used as a template for RT-PCR reactions using primer sets specific for PDE2 (forward: […], reverse: […]) or PDE5 (forward: […], reverse: […]). mRNA for PDE2 and 5 were both present in the untreated U937 cells. Upon treatment with TPA, the relative amounts of PDE2 mRNA increased 5 fold. Therefore, U937 cells treated with TPA and driven to differentiate into an activated macrophage like state have elevated levels of PDE2 mRNA (see FIG. 1).
The presence of PDE2 and PDE5 protein within U937 cells was confirmed by indirect immunofluorescence (IIF). U937 cells were cultured as above. Two U937 cultures, one grown in the presence of 5 nM TPA for 48 hours and one grown in normal media were processed. […]
The level of apoptosis in U937 cells was quantified by scoring 500 consecutive cells for the presence of active caspase 3. […]

Data set [3] is described as follows: single, escalating dose human clinical safety study. The note with it: oral, 50 mg BID, 100 mg BID, 200 mg BID and 400 mg BED. In kind it is in vivo.
Data set [4] relates to TNF-α secreted by TPA-induced U937 cells. In words: TNF-α immunoassay on U937 cell culture media. In kind it is cell-based. Conditions: cell culture media (FIG. 12). As to the method: One function of macrophages is to modulate the activity of other inflammatory cells through various cytokine molecules.
TNF-α levels in the cell culture media were determined by using the TNF-α Immunoassay from R&D Systems (Cat. # DTA50) according to the manufacturer's protocol.

A short description of data set [5]: seven-day dose-range finding study in rats. It is filed as in vivo. The note with it: seven days, 2000 mg/kg/day.
Data set [6] is described as follows: acute and seven-dose toxicity in dogs (capsules). In kind it is in vivo.
Description: Therefore, these dogs were subsequently administered seven consecutive doses of 1000 mg/kg/day.
Data set [7] deals with T2, PDE5 (Homo sapiens, UniProt O76074).
T2 construct: partially purified cGMP-specific PDE isolated from HT-29 cells; endogenous in cells; host or cells: HT-29
In words: cGMP PDE inhibition, PDE5. In kind it is biochemical.
Description: The mixture is incubated at 30° C. for 10 minutes with isolated PDE2 and/or PDE5. Reactions are terminated, for example, by boiling the reaction mixture for 75 seconds. After cooling on ice, 100 μl of 0.5 mg/mL snake venom (O. Hannah venom available from Sigma) is added and incubated for 10 minutes at 30° C. This reaction is then terminated by the addition of an alcohol, e.g. 1 mL of 100% methanol. Assay samples are applied to 1 mL Dowex 1-X8 column; and washed with 1 mL of 100% methanol. The amount of radioactivity in the breakthrough and the wash from the column is combined and measured with a scintillation counter. The degree of phosphodiesterase inhibition is determined by calculating the amount of radioactivity in drug-treated reactions and comparing against a control sample (a reaction mixture lacking the tested compound but with drug solvent).
Compounds can be tested for inhibitory effect on phosphodiesterase activity using either the enzyme isolated from any tumor cell line such as HT-29 or SW-480. […] The amount of radioactivity in the breakthrough and the wash from the columns in then measured with a scintillation counter. The degree of PDE5 inhibition is determined by calculating the amount of radioactivity in drug-treated reactions and comparing against a control sample (a reaction mixture lacking the tested compound).

Data set [8] in a line: acute toxicity study in rats. It is filed as in vivo.
Data set [9] can be described thus: 91-day oral study in dogs. It is filed as in vivo. The note with it: 91 days, 150 and 300 mg/kg/day.
The nature of data set [10]: long-term safety assessment study in rats, 91 days. In kind it is in vivo. The note with it: males and females at 200 and 500 mg/kg/day.
A short description of data set [11]: 28-day study in rats. In kind it is in vivo. The note with it: 28 days. Here is the method: A 28-day study in rats was also carried out at 0, 50, 500 and 2000 mg/kg/day.

pIC50: −log10 of the molar value. Read-outs that look alike come from different tables or passages of the source.

Regarding `CSc1ccc(/C=C2/C(C)=C(CC(=O)O)c3cc(F)ccc32)cc1` [Sulindac sulfide, sulindac sulfide], the “competition with cGMP in binding to cGMP binding sites of GST-cGB-PDE5” value (“competition with cGMP in binding” for short) in [1] (3H-cGMP 2 μM) was “None of the PDE5 inhibitors showed any competition”.

In the case of `CCCCOC1C2OP(=O)(O)OCC2OC1n1cnc2c(=O)[nH]c(N)nc21` (stereo not shown) [2′-O-butyl-cGMP], the “competition with cGMP in binding” value in data set [1] (3H-cGMP 2 μM) is on record as “did not compete”.

Take `O=c1ccn([C@@H]2O[C@@H]3COP(=O)(O)O[C@H]3[C@H]2O)c(=O)[nH]1` [cUMP, cyclic UMP]: the “competition with cGMP in binding” value in [1] (3H-cGMP 2 μM) is “did not compete”.

For `CCCOc1ccccc1-c1nc2nn[nH]c2c(=O)[nH]1` [zaprinast], in data set [1] (3H-cGMP 2 μM), the “competition with cGMP in binding” value is on record as “None of the PDE5 inhibitors showed any competition”.

`Nc1nc2c(nc(Br)n2[C@@H]2O[C@@H]3COP(=O)(O)O[C@H]3[C@H]2O)c(=O)[nH]1` [Example 8-bromo-cGMP, 8-bromo-cGMP]: the “competition with cGMP binding to GST-cGB-PDE5 at high concentration” value in data set [1] is reported as “can partially compete”.

For `Nc1ncnc2c1ncn2[C@@H]1O[C@@H]2COP(=O)(O)O[C@H]2[C@H]1O` [Cyclic AMP], in [1], the “competition with cGMP in binding” value is “did not compete”.

Take `Nc1ccn([C@@H]2O[C@@H]3COP(=O)(O)O[C@H]3[C@H]2O)c(=O)n1` [cCMP, cyclic CMP]: the “competition with cGMP in binding” value in data set [1] (3H-cGMP 2 μM) is given as “did not compete”.

With `O=C([O-])C1CCN(c2nc(NCc3ccc4c(c3)OCO4)c3cc(Cl)ccc3n2)CC1.[Na+]` [Example E4021], the “competition with cGMP in binding” value in data set [1] (3H-cGMP 2 μM) was “None of the PDE5 inhibitors showed any competition”.

Regarding `CCCCOC1C2OP(=O)(O)OCC2OC1n1cnc2c(N)ncnc21` (stereo not shown) [2′-O-butyl-cAMP], in data set [1] (3H-cGMP 2 μM), the “competition with cGMP in binding” value was “did not compete”.

As for `CC1=C(CC(=O)O)c2cc(F)ccc2/C1=C\c1ccc(S(C)(=O)=O)cc1` [exisulind], in data set [1] (3H-cGMP 2 μM), the “competition with cGMP in binding” value was “None of the PDE5 inhibitors showed any competition”.

What is called pIC50 is the IC50 on a negative log10 scale, so that one unit is a factor of ten. A high value points to a low IC50. As for `CC1=C(CC(=O)NCc2ccccc2)c2cc(F)ccc2/C1=C\c1ccncc1.Cl` [Compound 38, (Z)-5-Fluoro-2-Methyl-(4-Pyridylidene)-3-(N-Benzyl)Indenylacetamide Hydrochloride], in [2], the “apoptosis as reflected by the presence of active caspase 3 (FIG. 8)” value is “undergoing apoptosis”. Moreover, the side effects entry in data set [3] is recorded as “no significant side effects at any dose”. Moreover, in data set [4], the “level of TNF-α secreted” value was “significantly reduced”. Further, in data set [5], the effects result is “labored breathing and/or abnormal respiratory sounds, decreased weights gains and food consumption in male rats, and increased liver weights in female rats”. For the same compound, the results for the “oral LD50” value in [6] and in data set [8] (oral) were “greater than 1000 mg/kg” and greater than 2000 mg/kg, respectively. Further, the pIC50 in [7] is 5.40. Also, in [8] (intraperitoneal), the “intraperitoneal LD50” value is “greater than 1000 mg/kg”. For the same compound, the necropsy finding entry in data set [8] (single dose 1000 mg/kg intraperitoneally) is listed as “mesenteric adhesions seen in some animals”. Further, the feces result in data set [9] is on record as “Orange discoloration of the feces”. Besides, the “liver and thyroid/parathyroid weights” value in [10] is “dose-related trend to increased liver and thyroid/parathyroid weights”. Besides, the “competition with cGMP in binding” value in [1] (3H-cGMP 2 μM) is given as “does not bind to the cGMP-binding site”. Further, the “body weight changes, ophthalmoscopic examinations, hematological and blood chemistry values and urinalysis” value in [11] is on record as “unremarkable”. Further, the “liver and thyroid increases at the lower doses” value in data set [11] (lower doses) is recorded as “not statistically significant”.

`O=c1[nH]cnc2c1ncn2[C@@H]1O[C@@H]2COP(=O)(O)O[C@H]2[C@H]1O` [Cyclic IMP]: the “competition with cGMP binding to GST-cGB-PDE5 at high concentration” value in [1] is “can partially compete”.

The values above are taken from patent publication US20060252762A1, “Methods for treatment of multiple sclerosis” (priority 2001, published 2006).
